Entries after “also recorded” stand apart in the source; their conditions may differ.
Key:
[1] = system: HT22 cells; assay: Oxidative glutamate toxicity (MTT cell viability); assay type: cell-based; details: 5 mM glutamate, fisetin, 24 hr
Description: Cell viability was determined by a modified version of 3-(4,5-dimethylthiazol-2-yl)-2,5-diphenyl tetrazolium bromide (MTT) assay based on the standard procedure (Hansen M B et al. J. Immunol. Methods 119:203-210, 1989). Briefly, cells were seeded onto 96-well microtiter plates at a density of 5×10^3 cells per well. The next day, the medium was replaced with DMEM supplemented with 7.5% DFCS and the cells were treated with the different fisetin derivatives alone or in the presence of 5 mM glutamate. Twenty four hours later, the medium in each well was aspirated and replaced with fresh medium containing 2.5 μg/ml MTT. After 4 hours of incubation at 37° C., cells were solubilized with 100 μA of a solution containing 50% dimethylformamide and 20% SDS (pH 4.7). The absorbance at 570 nm was measured on the following day with a microplate reader (Molecular Devices). Results obtained from the MTT assay correlated directly with the extent of cell death as confirmed visually. Controls employing wells without cells were used to determine the effects of the agents upon the assay chemistry.
(§1) As shown in panel (A) of FIG. 3, HT22 cells were untreated (ct) or treated with 10 μM fisetin (fis) in the absence of presence of 5 mM glutamate for 24 hr and GSH was measured enzymatically and normalized to protein. As shown in panel (B) of FIG. 3, HT22 cells in 96-well plates were treated with 5 mM glutamate and the indicated concentrations of fisetin. MTT reduction was measured after 24 hr.

[2] = system: human brain microvascular cells; assay: Protein glycation in human brain microvascular cells exposed to glucose; assay type: cell-based; details: 1 μM fisetin
Description: In reference to FIG. 1, BSA was incubated with either 100 mM glucose (G) or 100 mM methylglyoxal (MG) for 14 days at 37° C. plus or minus 100 μM fisetin. The BSA was dialyzed vs. PBS run on SDS-PAGE and blotted with anti-carboxymethyl lysine (CML) (a glucose AGE) or anti-MG adducts from Dr. Brownlee. […] In FIG. 1, panel B, anti-MG only reacts with MG treated BSA and also causes protein polymerization. In FIG. 1, panel C, co-incubation with fisetin results in inhibition of glucose glycation in 2 assays, Western blotting with a-CML (BL, hatched bars) and a fluorescence assay for protein glycation (FL, clear bars). In FIG. 1, panel D, fisetin inhibited protein glycation caused by high glucose exposure of human brain microvascular cells. Cells were exposed to either 5 mM (−Glu) or 25 mM (+Glu) glucose for 5 days plus (F) or minus (C) 1 μM fisetin. Cells were then harvested and blotted with either anti-CML or MG antisera.

[3] = system: HT22 cells; assay: GSH level in HT22 cells; assay type: cell-based; details: 10 μM fisetin, absence or presence of 5 mM glutamate, 24 hr
Description: as §1

[4] = system: Akita mice; assay: Urine albumin/creatinine ratio in Akita mice; assay type: in vivo; details: fisetin 0.05% in diet for 18 weeks
Description: Urine albumin concentration was determined by competitive enzyme-linked immunoadsorbent assay using an Albuwell M kit (Exocell, Philadelphia, Pa.). Urine creatinine concentration was determined by Jaffe's reaction of alkaline picrate with creatinine using a Creatinine Companion kit (Exocell). Results are expressed as the urine albumin-to-creatinine ratio (micrograms per milligram).
Male Akita mice were fed control diet or fisetin (0.05%) for 18 weeks beginning at 6 weeks of age. Kidney hypertrophy was assessed by weighing the kidneys. Kidney function was assessed by measuring the albumin/creatinine ratio in the urine. Fisetin reduced diabetes-induced renal hypertrophy and proteinuria. All data are mean±SD of N=5-7/group.

[5] = system: Akita mice; assay: Thermal latency response of hind paw in Akita mice; assay type: in vivo; details: fisetin 0.05% in diet for 18 weeks
Description: Mice were placed in an observation chamber on the surface (floor temperature 30° C.) of a modified Hargreaves apparatus (UARD, San Diego, Calif.) and allowed to acclimate for 5 min. For measurement of thermal response latency, a heat source that warmed the chamber surface at approximately 1° C./sec was moved underneath the hind paw and the time to foot withdrawal recorded automatically. The procedure was repeated 4 times on the same paw at 5 min intervals and the median of values 2-4 used to represent the thermal response latency.
(§2) Male Akita mice were fed control diet or fisetin (0.05%) for 18 weeks beginning at 6 weeks of age. Large fiber function was tested by measuring motor nerve conduction velocity and small fiber function by paw withdrawal to noxious heat. Diabetes-induced MNCV slowing and thermal hypoalgesia were ameliorated by fisetin treatment. All data are mean±SD of N=5-7/group. […] P<0.05.

[6] = system: Akita mice; assay: Motor nerve conduction velocity in Akita mice; assay type: in vivo; details: fisetin 0.05% in diet for 18 weeks
Description: Conduction velocity of large myelinated motor fibers in the sciatic:tibial nerve system was measured in mice under isoflurane anesthesia with nerve temperature maintained at 37° C., as previously described (Calcutt et al. Diabetes 39:663-666, 1990). Briefly, stimulating electrodes were placed at the left sciatic notch and Achilles tendon and recording electrodes placed in the interosseus muscles of the ipsilateral hind paw. Electromyograms were recorded on a storage oscilloscope after stimulation at each site using single square waves (5 v, 0.05 ms) and motor nerve conduction velocity (MNCV) calculated using the peak to peak distance of the resulting M waves and the distance between the two stimulation sites. The median of 3 separate MNCV measurements was used to represent values for each mouse.
as §2

[7] = system: peripheral and CNS immune cells; details: peripheral [17] and CNS [8] immune cells; cited from earlier work

In the case of O=c1c(O)c(-c2ccc(O)c(O)c2)oc2cc(O)ccc12 [fisetin, 2-(3,4-dihydroxyphenyl)-3,7-dihydroxychromen-4-one], the “glutamate toxicity (MTT reduction)” value [1] is reported as “Reduction”, the “increase of CML and MG adducts caused by high glucose” value ([2]; 25 mM glucose 5 days) is reported as “blocked, at least in part” and the “endogenous glycation of some proteins” value ([2]; low glucose medium (5 mM)) is reported as “inhibits”. The GSH [3] was “Upregulation”, the “proteinuria (urine albumin/creatinine ratio)” value [4] was “almost completely prevented” and the “proteinuria (urine albumin/creatinine ratio)” value ([4]; listed as Fisetin) was “reduced”. For the same compound, the “thermal hypoalgesia (hind paw thermal latency)” value [5] was “ameliorated; also recorded: prevented”, the “diabetes-induced MNCV slowing” value [6] was “ameliorated; also recorded: prevented” and the anti-inflammatory activity [7] was “anti-inflammatory activity”.
